The values below come from patent US4826838A, “Analgesic carbocyclic and heterocyclic carbonylmethylene-and carbonylmethypipidines and-pyrrolidines” (Sandoz Ltd., priority 1985, dated 1989).

In one assay the test system is behavioral activity. Description: Studies A to D taken together (ethological and endocrinological tests). In kind it is in vivo, mouse. The protocol: Male intruder mice show only low levels of social activity and high levels of defensive activity when introduced into the home cage of an individually housed adult male. Benzodiazepines and related drugs increase approaxh activities in this situation (Dixon 1982, Triangle 21: 95-105 (1982) Krsiak. M. Br. J. Pharmacol. 55: 141-150 (1975)). Compounds of formula I, in oral doses of 0.1 to 1 mg/kg increase approach oriented social activity.
Stretched attend postures in mice signify an ambivalent form of conflict which is inhibited by putative anxiolytics (Kaeserman HP Psychopharmacology (1986) 89: 31-37). Compounds of formula I, when given 2 hours before, reduce the duration of stretched attend postures to mice placed on a novel elevated platform.
Compounds of formula I reduce such stress-induced corticosterone at 1 mg/kg p.o. whilst doses from 0.1 to 0.3 increase plasma levels of this hormone.

A further assay deals with 5-HT3 receptors. The conditions noted are these: isolated rabbit vagus nerve; cited from earlier work.
A further assay has as its system migraine attack. The conditions noted are these: slow i.v. injection of 10 mg; cited from earlier work.
The subject of the next assay is 5-HT3 receptor. The conditions noted are these: cantharidine blister base; cited from earlier work.

As for `CN1C2CCC1CC(=CC(=O)c1c[nH]c3ccccc13)C2` (single isomer, unassigned; (+)) [compound F, (+)-Indol-3-yl-carbonyl-methylenyl-3-(8-methyl-8-azabicyclo[3.2.1]octane)], the “relative activity among the compounds of formula I” value with behavioral activity is reported as “most active”.
As to `CN1C2CCC1CC(=CC(=O)c1c[nH]c3ccccc13)C2` (single isomer, unassigned; (-)) [compound G, (-)-Indol-3-yl-carbonyl-methylenyl-3-(8-methyl-8-azabicyclo[3.2.1]octane)], the “relative activity among the compounds of formula I” value with behavioral activity was “most active”.
As to `CCN(CC)C(=O)[C@@H]1C=C2c3cccc4[nH]c(Br)c(c34)C[C@H]2N(C)C1` [BOL -148], the “blockade of the action of serotonin on the C fibre action potential” value (from here on “blockade of the action of serotonin”) in the assay on 5-HT3 receptors is “not blocked”.
For the compound `CCN(CC)CCNC(=O)c1cc(Cl)c(N)cc1OC` [Metoclopramide], in the assay with migraine attack, the “effect on a migraine attack” value is “immediate beneficial effect”.
`CN1C2CCC1CC(=CC(=O)c1c[nH]c3ccccc13)C2` [compound E, Indol-3-yl-carbonyl-methylenyl-3-(8-methyl-8-azabicyclo[3.2.1]octane)]: the “relative activity among the compounds of formula I” value in the assay on behavioral activity is “most active”.
Regarding `CCN(CC)C(=O)[C@@H]1C=C2c3cccc4[nH]c(Br)c(c34)C[C@H]2N(C)C1` [its bromo derivative], the “inhibition of the algesic action of serotonin” value in the assay on 5-HT3 receptor was “not inhibited”.
As for `CCN(CC)C(=O)[C@@H]1C=C2c3cccc4[nH]cc(c34)C[C@H]2N(C)C1` [lysergic acid diethylamide], in the assay with 5-HT3 receptor, the “inhibition of the algesic action of serotonin” value is reported as “not inhibited”.
With `CC[C@@H](CO)NC(=O)[C@@H]1C=C2c3cccc4c3c(cn4C)C[C@H]2N(C)C1` [methysergide], the “blockade of the action of serotonin” value with 5-HT3 receptors is reported as “not blocked”.
For `CSc1ccc2c(c1)C(N1CCN(C)CC1)Cc1ccccc1S2` (stereo not drawn) [metitepine], the “blockade of the action of serotonin” value with 5-HT3 receptors is “not blocked”.
